Data as given in patent publication US20060276464A1, “Diarylsulfone sulfonamides and use thereof” (Wyeth, priority 2005, published 2006).

Experiments:
[1] = molecular target: T1, SFRP-1 (Homo sapiens, UniProt Q8N474); test: Fluorescence polarization binding assay (competitive displacement of a probe compound from SFRP-1); settings: fluorescence anisotropy, 45 nM SFRP-1, 20 nM probe;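 further: test compound competes with a fluorescent probe held by SFRP-1, seen as a drop in probe anisotropy after incubation in darkness, with anisotropy as function of rising compound dose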
T1 sequence (Q8N474 32-314): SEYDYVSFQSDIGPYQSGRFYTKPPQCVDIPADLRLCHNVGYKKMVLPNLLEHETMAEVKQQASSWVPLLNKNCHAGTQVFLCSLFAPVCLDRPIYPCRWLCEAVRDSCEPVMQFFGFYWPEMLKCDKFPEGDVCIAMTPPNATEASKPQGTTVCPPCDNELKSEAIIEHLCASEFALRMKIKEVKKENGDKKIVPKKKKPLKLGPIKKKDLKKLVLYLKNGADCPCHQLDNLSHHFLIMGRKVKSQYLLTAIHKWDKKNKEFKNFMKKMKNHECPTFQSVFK

[2] = molecular target: T1, SFRP-1; test: Cell-based assay for in vitro measurement of SFRP-1/SARP2 antagonist activity (U2OS cells co-transfected with 16x TCF-tk-Luciferase reporter, Wnt and hSFRP-1); settings: for fold induction at 10 µM: U2OS, read-out: Fold Induction with SFRP-1, U2OS cells, single dose 10 μM, luciferase reporter, fold induction over SFRP-1 control;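 on all read-outs here: U2OS cells co-transfected with a TCF-tk luciferase reporter, a Wnt vector, hSFRP-1 or empty vector and CMV-βgal, luciferase luminescence read in cell lysates alongside βgal activity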

Row | Compound | IC50 [1] | EC50 [2] | fold induction at 10 µM [2] | Fold Induction with SFRP-1 ([2]; U2OS cells, single dose 10 μM, luciferase reporter, fold induction over SFRP-1 control)
1 | COc1ccc(NC(=O)N(C)CCNS(=O)(=O)c2cc(S(=O)(=O)c3ccccc3)ccc2C(F)(F)F)c(OC)c1 [Example 828, N-{2-[{[(2,4-dimethoxyphenyl)amino]carbonyl}(methyl)amino]ethyl}-5-(phenylsulfonyl)-2-(trifluoromethyl)benzenesulfonamide] | 0.3 µM | 2.36 µM | 2.8 | –
2 | COc1ccc(NC(=O)N(C)CCNS(=O)(=O)c2cc(S(=O)(=O)c3ccccc3)ccc2C(F)(F)F)cc1 [Example 830, N-{2-[{[(4-methoxyphenyl)amino]carbonyl}(methyl)amino]ethyl}-5-(phenylsulfonyl)-2-(trifluoromethyl)benzenesulfonamide] | 0.6 µM | 1.87 µM | 3.3 | –
3 | CN(CCNS(=O)(=O)c1cc(S(=O)(=O)c2ccccc2)ccc1C(F)(F)F)C(=O)Nc1ccc(F)cc1F [Example 832, N-{2-[{[(2,4-difluorophenyl)amino]carbonyl}(methyl)amino]ethyl}-5-(phenylsulfonyl)-2-(trifluoromethyl)benzenesulfonamide] | 0.25 µM | 2.19 µM | 3.4 | –
4 | CN(CCNS(=O)(=O)c1cc(S(=O)(=O)c2ccccc2)ccc1C(F)(F)F)C(=O)c1ccc(C(C)(C)C)cc1 [Example 838, 4-tert-Butyl-N-methyl-N-[2-({[5-(phenylsulfonyl)-2-(trifluoromethyl)phenyl]sulfonyl}amino)ethyl]benzamide] | 1.2 µM | – | 2.5 | –
5 | CN(CCNS(=O)(=O)c1cc(S(=O)(=O)c2ccccc2)ccc1C(F)(F)F)C(=O)c1ccccc1OC(F)(F)F [Example 839, N-Methyl-N-[2-({[5-(phenylsulfonyl)-2-(trifluoromethyl)phenyl]sulfonyl}amino)ethyl]-2-(trifluoromethoxy)benzamide] | 0.3 µM | 2.38 µM | 3.5 | –
6 | O=S(=O)(NC1CCNC1)c1cc(S(=O)(=O)c2ccccc2)ccc1C(F)(F)F (stereo not shown) [Example 840, 5-(phenylsulfonyl)-N-pyrrolidin-3-yl-2-(trifluoromethyl)benzenesulfonamide] | 0.8 µM | – | 2.9 | –
7 | Cc1ccc(S(=O)(=O)c2ccc(F)cc2)cc1S(=O)(=O)NC1C[C@@H](C)O[C@@H](C)C1 (stereo partly drawn) [Example 841, N-[(2R*,4S*,6S*)-2,6-dimethyltetrahydro-2H-pyran-4-yl]-5-[(4-fluorophenyl)sulfonyl]-2-methylbenzenesulfonamide] | 18 µM | – | – | 1.6
8 | CNc1ccc(S(=O)(=O)c2ccc(C(F)(F)F)c(S(=O)(=O)NC3CCNCC3)c2)cc1 [Example 842, 5-{[4-(methylamino)phenyl]sulfonyl}-N-piperidin-4-yl-2-(trifluoromethyl)benzenesulfonamide] | 0.19 µM | 0.67 µM | 4.2 | –
9 | CN(C)c1ccc(S(=O)(=O)c2ccc(C(F)(F)F)c(S(=O)(=O)NC3CCNCC3)c2)cc1 [Example 843, 5-{[4-(dimethylamino)phenyl]sulfonyl}-N-piperidin-4-yl-2-(trifluoromethyl)benzenesulfonamide] | 0.26 µM | 2.01 µM | 4.7 | –
10 | O=S(=O)(NC1CCNCC1)c1cc(S(=O)(=O)c2ccc(NCCO)cc2)ccc1C(F)(F)F [Example 844, 5-({4-[(2-hydroxyethyl)amino]phenyl}sulfonyl)-N-piperidin-4-yl-2-(trifluoromethyl)benzenesulfonamide] | 0.16 µM | 0.5 µM | 4.4 | –
11 | O=S(=O)(NCCn1ccnc1)c1cc(S(=O)(=O)c2ccccc2F)ccc1C(F)(F)F [Example 845, 5-[(2-fluorophenyl)sulfonyl]-N-[2-(1H-imidazol-1-yl)ethyl]-2-(trifluoromethyl)benzenesulfonamide] | 0.5 µM | 0.807 µM | 3.8 | –
12 | CN(CCNS(=O)(=O)c1cc(S(=O)(=O)c2ccccc2)ccc1C(F)(F)F)C(=O)c1ccc(C(F)(F)F)c(F)c1 [Example 847, 3-Fluoro-N-methyl-N-[2-({[5-(phenylsulfonyl)-2-(trifluoromethyl)phenyl]sulfonyl}amino)ethyl]-4-(trifluoromethyl)benzamide] | 2.2 µM | – | 2.4 | –
13 | COC(=O)c1ccc(C(=O)N(C)CCNS(=O)(=O)c2cc(S(=O)(=O)c3ccccc3)ccc2C(F)(F)F)cc1 [Example 848, Methyl 4-({methyl[2-({[5-(phenylsulfonyl)-2-(trifluoromethyl)phenyl]sulfonyl}amino)ethyl]amino}carbonyl)benzoate] | 0.7 µM | 1.64 µM | 3.6 | –

Continued, values first:

Row | IC50 [1] | EC50 [2] | fold induction at 10 µM [2] | Fold Induction with SFRP-1 ([2]; U2OS cells, single dose 10 μM, luciferase reporter, fold induction over SFRP-1 control) | Compound
14 | 0.25 µM | 1.71 µM | 3.5 | – | CN(CCNS(=O)(=O)c1cc(S(=O)(=O)c2ccccc2)ccc1C(F)(F)F)C(=O)Nc1cccnc1 [Example 827, N-(2-{methyl[(pyridin-3-ylamino)carbonyl]amino}ethyl)-5-(phenylsulfonyl)-2-(trifluoromethyl)benzenesulfonamide]
15 | 0.4 µM | 1.32 µM | 2.7 | – | CN(CCNS(=O)(=O)c1cc(S(=O)(=O)c2ccccc2)ccc1C(F)(F)F)C(=O)NC(C)(C)C [Example 829, N-{2-[[(tert-butylamino)carbonyl](methyl)amino]ethyl}-5-(phenylsulfonyl)-2-(trifluoromethyl)benzenesulfonamide]
16 | 0.26 µM | 1.46 µM | 3.7 | – | CCCCNC(=O)N(C)CCNS(=O)(=O)c1cc(S(=O)(=O)c2ccccc2)ccc1C(F)(F)F [Example 831, N-(2-[[(butylamino)carbonyl](methyl)amino]ethyl}-5-(phenylsulfonyl)-2-(trifluoromethyl)benzenesulfonamide]
17 | 0.4 µM | 1.26 µM | 3.4 | – | CN(CCNS(=O)(=O)c1cc(S(=O)(=O)c2ccccc2)ccc1C(F)(F)F)C(=O)N1CCCC1 [Example 833, N-methyl-N-[2-({[5-(phenylsulfonyl)-2-(trifluoromethyl)phenyl]sulfonyl}amino)ethyl]pyrrolidine-1-carboxamide]
18 | 0.4 µM | 1.49 µM | 3 | – | CCN(CC)C(=O)N(C)CCNS(=O)(=O)c1cc(S(=O)(=O)c2ccccc2)ccc1C(F)(F)F [Example 834, N-{2-[[(diethylamino)carbonyl](methyl)amino]ethyl}-5-(phenylsulfonyl)-2-(trifluoromethyl)benzenesulfonamide]
19 | 1 µM | – | 3.3 | – | CN(CCNS(=O)(=O)c1cc(S(=O)(=O)c2ccccc2)ccc1C(F)(F)F)C(=O)N1CCOCC1 [Example 835, N-methyl-N-[2-({[5-(phenylsulfonyl)-2-(trifluoromethyl)phenyl]sulfonyl}amino)ethyl]morpholine-4-carboxamide]
20 | 0.21 µM | 1.99 µM | 2.8 | – | CN(CCNS(=O)(=O)c1cc(S(=O)(=O)c2ccccc2)ccc1C(F)(F)F)C(=O)N(C)c1ccccc1 [Example 836, N-[2-(methyl{[methyl(phenyl)amino]carbonyl}amino)ethyl]-5-(phenylsulfonyl)-2-(trifluoromethyl)benzenesulfonamide]
21 | 0.18 µM | 0.644 µM | 3.4 | – | CN(CCNS(=O)(=O)c1cc(S(=O)(=O)c2ccccc2)ccc1C(F)(F)F)C(=O)c1ccco1 [Example 837, N-Methyl-N-[2-({[5-(phenylsulfonyl)-2-(trifluoromethyl)phenyl]sulfonyl}amino)ethyl]-2-furamide]
22 | 0.3 µM | 2.67 µM | 3.2 | – | CN(CCNS(=O)(=O)c1cc(S(=O)(=O)c2ccccc2)ccc1C(F)(F)F)C(=O)C1CCCCC1 [Example 846, N-methyl-N-[2-({[5-(phenylsulfonyl)-2-(trifluoromethyl)phenyl]sulfonyl}amino)ethyl]cyclohexanecarboxamide]
23 | 0.7 µM | 2.1 µM | 3.9 | – | CN(CCNS(=O)(=O)c1cc(S(=O)(=O)c2ccccc2)ccc1C(F)(F)F)C(=O)c1cccnc1 [Example 849, N-Methyl-N-[2-({[5-(phenylsulfonyl)-2-(trifluoromethyl)phenyl]sulfonyl}amino)ethyl]nicotinamide]
24 | 0.6 µM | 1.53 µM | 3.5 | – | CN(CCNS(=O)(=O)c1cc(S(=O)(=O)c2ccccc2)ccc1C(F)(F)F)C(=O)c1ccncc1 [Example 850, N-Methyl-N-[2-({[5-(phenylsulfonyl)-2-(trifluoromethyl)phenyl]sulfonyl}amino)ethyl]isonicotinamide]
25 | 0.4 µM | 1.51 µM | 3.6 | – | CN(CCNS(=O)(=O)c1cc(S(=O)(=O)c2ccccc2)ccc1C(F)(F)F)C(=O)c1cccnc1Cl [Example 851, 2-Chloro-N-methyl-N-[2-({[5-(phenylsulfonyl)-2-(trifluoromethyl)phenyl]sulfonyl}amino)ethyl]nicotinamide]
26 | 0.3 µM | 1.65 µM | 3.3 | – | CN(CCNS(=O)(=O)c1cc(S(=O)(=O)c2ccccc2)ccc1C(F)(F)F)C(=O)C(C)(C)C [Example 852, N,2,2-trimethyl-N-[2-({[5-(phenylsulfonyl)-2-(trifluoromethyl)phenyl]sulfonyl}amino)ethyl]propanamide]
